Legend:
A549 cells [1] = assay: Cytochrome c release (FlowCellect kit); assay type: cell-based, human; conditions: 5 h
Protocol: (§1) DNA damage was measured using EpiQuik 8-OHdG DNA Damage Quantification Direct Kit (colorimetric) (Fischer, Waltham, MA, USA, P600396); The mitochondrial cytochrome C release was evaluated using the “Millipore’s FlowCellect Cytochrome C Kit (Millipore, FCCH100110)”. Lactate dehydrogenase activity release was measured in the culture medium using Cytotoxicity Detection Kit (Roche Diagnostic, Barcelona, Spain, 11 644 793 001). Protein synthesis was determined using Click-iT Plus O-propargyl-puromycin (OPP) Protein Synthesis Assay Kit (Invitrogen™, Waltham, MA, USA). Measurement of GSH/GSSG was determined with GSH/GSSG-Glo Assay (Promega, V6611). Measurements of OCR and ECAR with Seahorse XFp (Agilent Technologies) were determined using the XFp Cell Mito Stress Test Kit (103010-100) and XFp Glycolysis Stress Test Kit (103017-100). ATP measurement was determined with Cell Titer-Glo Luminescent Cell Viability Assay (Promega, Madison, WI, USA, G7570). Determination of DNA damage using phosphorylated H2AX measurement were performed as previously described. Cardiolipin oxidation using the fluorophore Nonyl Acridine Orange (NAO, Thermo Scientific, A1372) was performed as described. Cell viability was determined by Hoechst inclusion and Propidium iodide (PI) exclusion by standard protocols. TEM analysis were performed as described. […]

BALB/c mice = assay: Acute toxicity in healthy mice; assay type: in vivo, mouse; conditions: dissolved in PBS
Excerpt: Female mice weighing approximately 20–25 g, 8–12 weeks were obtained from Janvier Laboratories (Le Genest-Saint-Isle, France). All mice received a standard laboratory diet and water ad libitum. The use of immunosuppressed animals is always a limitation since they are not a true reflection of an animal with a functional immune system and, therefore, can affect both the toxicological response and the biodistribution of a compound, but they are essential to be able to implant human tumor cells, otherwise the tumor would be rejected by the immune system. Therefore, in order to analyze the biodistribution, toxicology and efficacy of a compound against a tumor, it is necessary to use different animals. Animal studies were approved by the Bioethics Committee of the Universidade de Santiago de Compostela and were done in compliance with the principles of laboratory animal care according to Spanish national law (RD 53/2013).

cytosolic Ca2+ = assay: Cytosolic calcium (Fluo3/AM); assay type: cell-based; conditions: 16 µM, after 4 h of incubation
Protocol: (§2) Specific assays with 1[C,NH] complex were performed according to manufacturer’s instructions using the following reagents from Molecular Probes (Thermo Fisher Scientific): Measurements of ROS: Dihydroethidium (DHE, D11347) and 2′, 7′-dichlorodihydrofluorescein diacetate (H2DCFDA, D399); detection of caspases 3/7: CellEvent Caspase-3/7 Green Detection Reagent (C10423); Cell viability: Live/Dead Cell Imaging Kit (R37601); Analysis of cytosolic calcium concentration: Fluo3/AM (F23915); Analysis of MMP: Tetramethylrhodamine methyl ester perchlorate (TMRM, T668). RT-qPCR’s assays were performed with the following primers/probes from Thermo Fisher Scientific: DCP1A (Hs00218198-m1), FOSB (Hs00171851-m1), EGR1(Hs0015928-m1), ATF3 (Hs00231069-m1), DDIT3 (Hs00358796-g1), PP1R15A (Hs00169585-m1), CHAC1(Hs00225520-m1), MIR9-1 (Hs04231512-s1), ATP1B2 (Hs00155922-m1), BBC3 (Hs00248075-m1), BCL2L11 (Hs00798019-s1), PMAIP1 (Hs00560402-m1), SKP2 (Hs01021864-m1) and HIST1H1B (Hs00271207-s1). RT-qPCR experiments were performed as described.

A549 cells [2] = assay: Hoechst/propidium iodide staining; assay type: cell-based, human; conditions: 16 μM
Protocol: as §1

A549 cells [3] = assay: Lactate dehydrogenase release; assay type: cell-based, human; conditions: 16 µM, 1% FBS
Protocol: as §1

A549 cells [4] = assay: Cardiolipin oxidation (NAO, flow cytometry); assay type: cell-based, human; conditions: 4 h
Protocol: as §1

A549 cells [5] = assay: DNA damage by phosphorylated H2AX, flow cytometry; assay type: cell-based, human; conditions: 4 h
Protocol: (§3) DNA damage was measured using EpiQuik 8-OHdG DNA Damage Quantification Direct Kit (colorimetric) (Fischer, Waltham, MA, USA, P600396); The mitochondrial cytochrome C release was evaluated using the “Millipore’s FlowCellect Cytochrome C Kit (Millipore, FCCH100110)”. Lactate dehydrogenase activity release was measured in the culture medium using Cytotoxicity Detection Kit (Roche Diagnostic, Barcelona, Spain, 11 644 793 001). Protein synthesis was determined using Click-iT Plus O-propargyl-puromycin (OPP) Protein Synthesis Assay Kit (Invitrogen™, Waltham, MA, USA). Measurement of GSH/GSSG was determined with GSH/GSSG-Glo Assay (Promega, V6611). Measurements of OCR and ECAR with Seahorse XFp (Agilent Technologies) were determined using the XFp Cell Mito Stress Test Kit (103010-100) and XFp Glycolysis Stress Test Kit (103017-100). ATP measurement was determined with Cell Titer-Glo Luminescent Cell Viability Assay (Promega, Madison, WI, USA, G7570). Determination of DNA damage using phosphorylated H2AX measurement were performed as previously described. Cardiolipin oxidation using the fluorophore Nonyl Acridine Orange (NAO, Thermo Scientific, A1372) was performed as described. Cell viability was determined by Hoechst inclusion and Propidium iodide (PI) exclusion by standard protocols. TEM analysis were performed as described. Cell cycle analysis by flow cytometry and microarrays analysis were performed as described. Arrays data have been deposited in the ArrayExpress database at EMBL-EBI (www.ebi.ac.uk/arrayexpress) under accession number E-MTAB-860 (10 November 2022)

A549 cells [6] = assay: 8-OHdG DNA damage quantification; assay type: cell-based, human; conditions: 16 μM, 4 h
Protocol: as §1

A549 cells [7] = assay: Seahorse XFp Cell Mito Stress Test (OCR); assay type: cell-based, human; conditions: 16 µM, A549, 1 h
Protocol: as §3

CHOP = CHOP induction (CHOP::GFP plasmid); assay type: cell-based, human; conditions: HEK293, 9.7 µM, 24 h time-lapse
Protocol: CHOP induction. HEK293 cells were seeded at 8 × 10^5 cell/well in 24-well plates and transfected with CHOP::GFP plasmid (Addgene plasmid #21898; http://n2t.net/addgene:21898; RRID:Addgene_21898, 10 November 2022) using the transfection reagent DreamFectTM Gold (OZ Bioscience, Cat. N. º LM80250). After 24 h incubation, the treatments were added: 1[C,NH] 9.7 µM; tunicamycin 0.5 µM as positive control. Cells were stained with propidium iodide (1 µg/mL). Time-lapse images were acquired every 30 min for 24 h.

A549 cells [8] = assay: Mitochondrial membrane potential (TMRM); assay type: cell-based, human; conditions: 16 µM, TMRM 50 nM
Protocol: as §2

[9] = Stopped flow kinetics of DMSO substitution by OH-; assay type: physicochemical
Protocol: The slow kinetic measurements were performed with the previous spectrophotometer while the fast kinetic measurements were performed in a stopped flow Bio-Logic SFM-300 spectrophotometer with an absorbance detection system and dead time below 3 ms. The kinetic curves, obtained averaging out at least five shots, were analysed with the Jandel (AISN software, Mapleton, OR) fitting package.

Cc1c(C)c(C)[c-](C)c1C.[Cl][Ir]1[c]2ccccc2-c2[nH]c3ccccc3[n+]21 [1[C,NH], [(η^5-Cp*)IrCl(κ^2-N,C-pbim)]]
Cytochrome c release (A549 cells [1]): increased Cyt c release | Maximum tolerated dose (BALB/c mice): 1.3 mg/kg | Cytosolic Ca2+ (cytosolic Ca2+): increase in cytosolic Ca^2+ | PI positive cells (A549 cells [2]): absent during the first 6 h of treatment | LDH release to the medium (A549 cells [3]): only began after 8 h of incubation | Cardiolipin oxidation (A549 cells [4]): induced CL oxidation | Percentage of A549 positive cells to damage on DNA (A549 cells [5]; 8 μM): 2% | Percentage of A549 positive cells to damage on DNA (A549 cells [5]; 16 μM): 30% | Percentage of A549 positive cells to damage on DNA (A549 cells [5]; 24 μM): 87% | 8-OHdG levels (A549 cells [6]): increased after 4 h | ATP Production, OCR, Mean (A549 cells [7]): 7.77 pmol/min | Basal Respiration, OCR, Mean (A549 cells [7]): 57.35 pmol/min | Coupling Efficiency, Mean (A549 cells [7]): 13.65 | Maximal Respiration, OCR, Mean (A549 cells [7]): 47.24 pmol/min | Non-Mitochondrial Oxygen Consumption, OCR, Mean (A549 cells [7]): 26.35 pmol/min | Proton Leak, OCR, Mean (A549 cells [7]): 49.58 pmol/min | Spare Respiratory Capacity as a %, Mean (A549 cells [7]): 80.93% | Spare Respiratory Capacity, OCR, Mean (A549 cells [7]): 0.27 pmol/min | CHOP expression (CHOP): increased expression | Mitochondrial membrane potential (MMP) (A549 cells [8]): quick and deep dissipation of MMP

Cc1c(C)c(C)[c-](C)c1C.[Cl][Ir]1[O]c2ccccc2-c2sc3ccccc3[n+]21 [8[CO,S], [(η^5-Cp*)IrCl(κ^2-O,N-hpbtz)]]
k (substitution of DMSO by OH-) ([9]; pH = 10.2): 39 s⁻¹ | k (substitution of DMSO by OH-) ([9]; pH = 11.5): 112 s⁻¹

From paper PMC9818021, “Targets, Mechanisms and Cytotoxicity of Half-Sandwich Ir(III) Complexes Are Modulated by Structural Modifications on the Benzazole Ancillary Ligand” (Cancers, 2022)
